Measured values reported in EP4813989A1, “CRYSTAL, PHARMACEUTICAL COMPOSITION, PREPARATION METHOD THEREFOR, AND USE THEREOF” (TYK Medicines, Inc., priority 2023, dated 2025).

What was measured:
Type in all cases: physicochemical
[1] = Dynamic vapor sorption (DVS) hygroscopicity
Description: Dynamic vapor sorption (DVS) was used to investigate hygroscopicities of an active pharmaceutical ingredient in different crystal forms.
Determination method: • instrument: dynamic vapor sorption analyzer; temperature: 25°C; protective gas and flow rate: N2, 200 mL/min; • dm/dt: 0.002%/min; RH range: 0%RH-100%RH; cycle: 1 full cycle.

[2] = High-humidity test, related substances by HPLC; conditions: 90%RH±5%RH; for Impurity content RRT0.55 / Impurity content RRT0.66 / Impurity content RRT0.71 / Impurity content RRT0.94 / Impurity content RRT1.02 / Impurity content RRT1.06 / Impurity content RRT1.08 / Impurity content RRT1.15 / Total impurities: open
Text: An investigation method for the high-humidity test can be seen in Table 12 below.
Results of related substances in each crystal form under the high-humidity condition (90%RH±5%RH) can be seen in Table 16.
HPLC detection results of related substances under the high-humidity condition can be seen as follows: Table 16

[3] = Light exposure test, related substances by HPLC; conditions: for Impurity content RRT0.55 / Impurity content RRT0.66 / Impurity content RRT0.71 / Impurity content RRT0.94 / Impurity content RRT1.02 / Impurity content RRT1.06 / Impurity content RRT1.08 / Impurity content RRT1.15 / Total impurities: 4500lx±500lx, open
Text: An investigation method for the light exposure test can be seen in Table 13 below.
Results of related substances in each crystal form under the light exposure condition (4500lx±500lx) can be seen in Table 17.
HPLC detection results of related substances under the light exposure condition can be seen as follows: Table 17

[4] = Accelerated test, related substances by HPLC; conditions: 40°C±2°C, 75%RH±5%RH; for Impurity content RRT0.55 / Impurity content RRT0.66 / Impurity content RRT0.71 / Impurity content RRT0.94 / Impurity content RRT1.02 / Impurity content RRT1.06 / Impurity content RRT1.08 / Impurity content RRT1.15 / Total impurities: open
Description: An investigation method for the accelerated test can be seen in Table 14 below.
Change results of related substances in each crystal form under the accelerated condition (40°C±2°C, 75%RH±5%RH) can be seen in Table 18.
HPLC detection results of related substances under the accelerated condition can be seen as follows: Table 18

[5] = Flowability test (angle of repose); conditions: listed as amorphous sample
Description: A flowability determination method was as follows: an angle of repose was determined by using a device composed of 2 to 3 funnels connected in series in a staggered manner, and drug powder was slowly and uniformly passed through the funnels onto a stationary base with a diameter d, so as to form a symmetric powder pile with a single layer of powder at the bottom. During the formation of the powder pile, a height of the funnels was maintained within 2-4 cm from a top of the powder pile, a height h of the cone was determined, and the angle of repose was calculated as tanθ=h/(d/2).

Compound: C[C@@H](Nc1ccn2ncc(C3=NOC(C)(C)N3)c2n1)c1cc(F)cc(F)c1F [amorphous form]
- Hygroscopicity (conclusion) [1]: had hygroscopicity
- DVS weight gain ([1]; humidity increased from 90% to 100%): approximately 3.5%
- DVS weight loss ([1]; humidity reduced from 100% to 90%): approximately 1.5%
- Increase of impurity RRT1.02 content ([2]; 32 days): 0.03%
- Increase of impurity RRT1.08 content ([2]; 32 days): 0.05%
- Increase of total impurities ([2]; 32 days): 0.10%
- Impurity content RRT0.55 ([2]; 0 day): 0.03%
- Impurity content RRT0.66 ([2]; 0 day): 0.20%
- Impurity content RRT0.71 ([2]; 0 day): 0.16%
- Impurity content RRT0.94 ([2]; 0 day): 0.04%
- Impurity content RRT1.02 ([2]; 0 day): 0.29%
- Impurity content RRT1.06 ([2]; 0 day): 0.07%
- Impurity content RRT1.08 ([2]; 0 day): 0.18%
- Impurity content RRT1.15 ([2]; 0 day): 0.04%
- Total impurities ([2]; 0 day): 1.01%
- Impurity content RRT0.55 ([2]; 5 days): 0.03%
- Impurity content RRT0.66 ([2]; 5 days): 0.21%
- Impurity content RRT0.71 ([2]; 5 days): 0.17%
- Impurity content RRT0.94 ([2]; 5 days): 0.03%
- Impurity content RRT1.02 ([2]; 5 days): 0.31%
- Impurity content RRT1.06 ([2]; 5 days): 0.09%
- Impurity content RRT1.08 ([2]; 5 days): 0.19%
- Impurity content RRT1.15 ([2]; 5 days): 0.04%
- Total impurities ([2]; 5 days): 1.07%
- Impurity content RRT0.55 ([2]; 11 days): 0.03%
- Impurity content RRT0.66 ([2]; 11 days): 0.20%
- Impurity content RRT0.71 ([2]; 11 days): 0.16%
- Impurity content RRT0.94 ([2]; 11 days): 0.03%
- Impurity content RRT1.02 ([2]; 11 days): 0.31%
- Impurity content RRT1.06 ([2]; 11 days): 0.09%
- Impurity content RRT1.08 ([2]; 11 days): 0.25%
- Impurity content RRT1.15 ([2]; 11 days): 0.03%
- Total impurities ([2]; 11 days): 1.11%
- Impurity content RRT0.55 ([2]; 32 days): 0.03%
- Impurity content RRT0.66 ([2]; 32 days): 0.20%
- Impurity content RRT0.71 ([2]; 32 days): 0.18%
- Impurity content RRT0.94 ([2]; 32 days): 0.04%
- Impurity content RRT1.02 ([2]; 32 days): 0.31%
- Impurity content RRT1.06 ([2]; 32 days): 0.06%
- Impurity content RRT1.08 ([2]; 32 days): 0.23%
- Impurity content RRT1.15 ([2]; 32 days): 0.05%
- Total impurities ([2]; 32 days): 1.11%
- Increase of impurity RRT0.66 content ([3]; 4500 lx±500 lx, 32 days): 0.03%
- Increase of impurity RRT0.71 content ([3]; 4500 lx±500 lx, 32 days): 0.05%
- Increase of impurity RRT1.02 content ([3]; 4500 lx±500 lx, 32 days): 0.06%
- Increase of impurity RRT1.08 content ([3]; 4500 lx±500 lx, 32 days): 0.19%
- Increase of total impurities ([3]; 4500 lx±500 lx, 32 days): 0.37%
- Impurity content RRT0.55 ([3]; 0 day): 0.03%
- Impurity content RRT0.66 ([3]; 0 day): 0.20%
- Impurity content RRT0.71 ([3]; 0 day): 0.16%
- Impurity content RRT0.94 ([3]; 0 day): 0.04%
- Impurity content RRT1.02 ([3]; 0 day): 0.29%
- Impurity content RRT1.06 ([3]; 0 day): 0.07%
- Impurity content RRT1.08 ([3]; 0 day): 0.18%
- Impurity content RRT1.15 ([3]; 0 day): 0.04%
- Total impurities ([3]; 0 day): 1.01%
- Impurity content RRT0.55 ([3]; 5 days): 0.04%
- Impurity content RRT0.66 ([3]; 5 days): 0.20%
- Impurity content RRT0.71 ([3]; 5 days): 0.17%
- Impurity content RRT0.94 ([3]; 5 days): 0.03%
- Impurity content RRT1.02 ([3]; 5 days): 0.32%
- Impurity content RRT1.06 ([3]; 5 days): 0.08%
- Impurity content RRT1.08 ([3]; 5 days): 0.21%
- Impurity content RRT1.15 ([3]; 5 days): 0.04%
- Total impurities ([3]; 5 days): 1.09%
- Impurity content RRT0.55 ([3]; 11 days): 0.03%
- Impurity content RRT0.66 ([3]; 11 days): 0.21%
- Impurity content RRT0.71 ([3]; 11 days): 0.17%
- Impurity content RRT0.94 ([3]; 11 days): 0.03%
- Impurity content RRT1.02 ([3]; 11 days): 0.33%
- Impurity content RRT1.06 ([3]; 11 days): 0.09%
- Impurity content RRT1.08 ([3]; 11 days): 0.28%
- Impurity content RRT1.15 ([3]; 11 days): 0.03%
- Total impurities ([3]; 11 days): 1.17%
- Impurity content RRT0.55 ([3]; 32 days): 0.05%
- Impurity content RRT0.66 ([3]; 32 days): 0.23%
- Impurity content RRT0.71 ([3]; 32 days): 0.21%
- Impurity content RRT0.94 ([3]; 32 days): 0.06%
- Impurity content RRT1.02 ([3]; 32 days): 0.35%
- Impurity content RRT1.06 ([3]; 32 days): 0.07%
- Impurity content RRT1.08 ([3]; 32 days): 0.37%
- Impurity content RRT1.15 ([3]; 32 days): 0.05%
- Total impurities ([3]; 32 days): 1.38%
- Increase of impurity RRT1.08 content ([4]; 32 days): 0.03%
- Impurity content RRT0.55 ([4]; 0 day): 0.03%
- Impurity content RRT0.66 ([4]; 0 day): 0.20%
- Impurity content RRT0.71 ([4]; 0 day): 0.16%
- Impurity content RRT0.94 ([4]; 0 day): 0.04%
- Impurity content RRT1.02 ([4]; 0 day): 0.29%
- Impurity content RRT1.06 ([4]; 0 day): 0.07%
- Impurity content RRT1.08 ([4]; 0 day): 0.18%
- Impurity content RRT1.15 ([4]; 0 day): 0.04%
- Total impurities ([4]; 0 day): 1.01%
- Impurity content RRT0.55 ([4]; 5 days): 0.04%
- Impurity content RRT0.66 ([4]; 5 days): 0.20%
- Impurity content RRT0.71 ([4]; 5 days): 0.17%
- Impurity content RRT0.94 ([4]; 5 days): 0.03%
- Impurity content RRT1.02 ([4]; 5 days): 0.32%
- Impurity content RRT1.06 ([4]; 5 days): 0.08%
- Impurity content RRT1.08 ([4]; 5 days): 0.22%
- Impurity content RRT1.15 ([4]; 5 days): 0.04%
- Total impurities ([4]; 5 days): 1.09%
- Impurity content RRT0.55 ([4]; 11 days): 0.03%
- Impurity content RRT0.66 ([4]; 11 days): 0.20%
- Impurity content RRT0.71 ([4]; 11 days): 0.17%
- Impurity content RRT0.94 ([4]; 11 days): 0.03%
- Impurity content RRT1.02 ([4]; 11 days): 0.31%
- Impurity content RRT1.06 ([4]; 11 days): 0.08%
- Impurity content RRT1.08 ([4]; 11 days): 0.24%
- Impurity content RRT1.15 ([4]; 11 days): 0.03%
- Total impurities ([4]; 11 days): 1.10%
- Impurity content RRT0.55 ([4]; 32 days): 0.04%
- Impurity content RRT0.66 ([4]; 32 days): 0.20%
- Impurity content RRT0.71 ([4]; 32 days): 0.18%
- Impurity content RRT0.94 ([4]; 32 days): 0.04%
- Impurity content RRT1.02 ([4]; 32 days): 0.29%
- Impurity content RRT1.06 ([4]; 32 days): 0.06%
- Impurity content RRT1.08 ([4]; 32 days): 0.21%
- Impurity content RRT1.15 ([4]; 32 days): 0.03%
- Total impurities ([4]; 32 days): 1.05%
- angle of repose [5]: approximately 37.5 °
